Measurements from ChEMBL document CHEMBL2073782, “Comparative inhibitory effects of different compounds on rat oatpl (slc21a1)- and Oatp2 (Slc21a5)-mediated transport” (Pharm Res, 2002).

What was measured:
[1] = biological target: T1, Oatp2 (Solute carrier organic anion transporter family member 1A4) (Rattus norvegicus, UniProt O35913); test: TP_TRANSPORTER: inhibition of Digoxin uptake (Digoxin: 0.05 uM, Deoxycorticosterone: 100 uM) in Oatp2-expressing LLC-PK1 cells; type: functional, cell-based; set-up: scale not given: the % may be the effect or the level left; conditions: pig, probe Digoxin, read-out: Activity
T1 sequence (O35913 whole entry): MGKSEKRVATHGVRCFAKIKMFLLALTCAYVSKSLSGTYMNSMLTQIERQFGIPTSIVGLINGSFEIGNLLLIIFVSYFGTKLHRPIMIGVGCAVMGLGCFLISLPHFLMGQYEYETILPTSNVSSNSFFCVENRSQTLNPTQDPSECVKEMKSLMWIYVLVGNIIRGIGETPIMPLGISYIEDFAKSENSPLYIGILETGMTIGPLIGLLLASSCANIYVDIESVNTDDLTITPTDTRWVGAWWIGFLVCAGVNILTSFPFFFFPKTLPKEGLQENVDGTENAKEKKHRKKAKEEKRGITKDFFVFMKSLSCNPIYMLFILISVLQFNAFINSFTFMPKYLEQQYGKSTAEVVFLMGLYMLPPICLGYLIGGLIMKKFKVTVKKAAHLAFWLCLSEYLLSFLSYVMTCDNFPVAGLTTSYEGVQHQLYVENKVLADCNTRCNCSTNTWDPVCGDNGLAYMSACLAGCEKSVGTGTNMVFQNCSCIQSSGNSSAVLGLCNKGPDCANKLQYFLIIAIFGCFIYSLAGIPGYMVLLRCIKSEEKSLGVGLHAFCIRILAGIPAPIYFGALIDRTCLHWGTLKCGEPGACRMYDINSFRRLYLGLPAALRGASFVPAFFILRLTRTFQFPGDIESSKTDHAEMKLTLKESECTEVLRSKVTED

[2] = biological target: T2, Oatp1 (Solute carrier organic anion transporter family member 1A1) (Rattus norvegicus, UniProt P46720); test: TP_TRANSPORTER: inhibition of E217betaG uptake (E217betaG: 0.1 uM, Deoxycorticosterone: 100 uM) in Oatp1-expressing LLC-PK1 cells; type: functional, cell-based; set-up: scale not given: the % may be the effect or the level left; conditions: pig, probe E217betaG, read-out: Activity
T2 sequence (P46720 whole entry): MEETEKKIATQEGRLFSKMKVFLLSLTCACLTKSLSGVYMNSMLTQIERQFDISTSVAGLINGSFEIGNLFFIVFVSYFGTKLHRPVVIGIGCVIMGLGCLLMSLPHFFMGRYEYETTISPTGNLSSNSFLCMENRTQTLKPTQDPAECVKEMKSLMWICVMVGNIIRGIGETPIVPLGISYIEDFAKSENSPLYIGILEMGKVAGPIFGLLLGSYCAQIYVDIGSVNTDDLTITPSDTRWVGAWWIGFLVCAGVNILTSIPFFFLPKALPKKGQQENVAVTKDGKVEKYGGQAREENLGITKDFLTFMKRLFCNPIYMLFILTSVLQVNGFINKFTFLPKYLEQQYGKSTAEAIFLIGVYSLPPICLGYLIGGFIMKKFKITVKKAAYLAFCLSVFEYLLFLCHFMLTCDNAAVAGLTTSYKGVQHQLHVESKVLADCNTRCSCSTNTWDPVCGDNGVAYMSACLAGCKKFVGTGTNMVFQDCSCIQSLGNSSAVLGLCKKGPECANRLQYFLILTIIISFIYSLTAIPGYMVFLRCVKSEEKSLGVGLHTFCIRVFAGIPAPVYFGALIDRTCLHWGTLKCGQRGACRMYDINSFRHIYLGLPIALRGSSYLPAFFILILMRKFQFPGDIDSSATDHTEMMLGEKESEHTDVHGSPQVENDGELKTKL

[3] = biological target: T1, Oatp2 (Solute carrier organic anion transporter family member 1A4); test: TP_TRANSPORTER: inhibition of Digoxin uptake (Digoxin: 0.05 uM, Ketoprofen: 1000 uM) in Oatp2-expressing LLC-PK1 cells; type: functional, cell-based; set-up: scale not given: the % may be the effect or the level left; conditions: pig, probe Digoxin, read-out: Activity
[4] = biological target: T2, Oatp1 (Solute carrier organic anion transporter family member 1A1); test: TP_TRANSPORTER: inhibition of E217betaG uptake (E217betaG: 0.1 uM, Ketoprofen: 1000 uM) in Oatp1-expressing LLC-PK1 cells; type: functional, cell-based; set-up: scale not given: the % may be the effect or the level left; conditions: pig, probe E217betaG, read-out: Activity
[5] = biological target: T3, Solute carrier organic anion transporter family member 1A1 (Rattus norvegicus, UniProt P46720); test: TP_TRANSPORTER: inhibition of E217betaG uptake in Oatp1-expressing LLC-PK1 cells; type: functional, cell-based
T3 sequence (P46720 whole entry): T2 sequence (P46720 whole entry)

[6] = biological target: T4, Solute carrier organic anion transporter family member 1A4 (Rattus norvegicus, UniProt O35913); test: TP_TRANSPORTER: inhibition of Digoxin uptake in Oatp2-expressing LLC-PK1 cells; type: functional, cell-based
T4 sequence (O35913 whole entry): T1 sequence (O35913 whole entry)

[7] = biological target: T2, Oatp1 (Solute carrier organic anion transporter family member 1A1); test: TP_TRANSPORTER: inhibition of E217betaG uptake (E217betaG: 0.1 uM, Indomethacin: 1000 uM) in Oatp1-expressing LLC-PK1 cells; type: functional, cell-based; set-up: scale not given: the % may be the effect or the level left; conditions: pig, probe E217betaG, read-out: Activity
[8] = biological target: T1, Oatp2 (Solute carrier organic anion transporter family member 1A4); test: TP_TRANSPORTER: inhibition of Digoxin uptake (Digoxin: 0.05 uM, Indomethacin: 1000 uM) in Oatp2-expressing LLC-PK1 cells; type: functional, cell-based; set-up: scale not given: the % may be the effect or the level left; conditions: pig, probe Digoxin, read-out: Activity
[9] = biological target: T1, Oatp2 (Solute carrier organic anion transporter family member 1A4); test: TP_TRANSPORTER: inhibition of Digoxin uptake (Digoxin: 0.05 uM, Corticosterone: 100 uM) in Oatp2-expressing LLC-PK1 cells; type: functional, cell-based; set-up: scale not given: the % may be the effect or the level left; conditions: pig, probe Digoxin, read-out: Activity
[10] = biological target: T2, Oatp1 (Solute carrier organic anion transporter family member 1A1); test: in vitro; conditions: pig, Oatp1-expressing LLC-PK1 cells, probe E217betaG
[11] = biological target: T1, Oatp2 (Solute carrier organic anion transporter family member 1A4); test: in vitro; conditions: pig, Oatp2-expressing LLC-PK1 cells, probe Digoxin
[12] = biological target: T2, Oatp1 (Solute carrier organic anion transporter family member 1A1); test: TP_TRANSPORTER: inhibition of E217betaG uptake (E217betaG: 0.1 uM, Verapamil: 1000 uM) in Oatp1-expressing LLC-PK1 cells; type: functional, cell-based; set-up: scale not given: the % may be the effect or the level left; conditions: pig, probe E217betaG, read-out: Activity
[13] = biological target: T1, Oatp2 (Solute carrier organic anion transporter family member 1A4); test: TP_TRANSPORTER: inhibition of Digoxin uptake (Digoxin: 0.05 uM, Verapamil: 1000 uM) in Oatp2-expressing LLC-PK1 cells; type: functional, cell-based; set-up: scale not given: the % may be the effect or the level left; conditions: pig, probe Digoxin, read-out: Activity
[14] = biological target: T1, Oatp2 (Solute carrier organic anion transporter family member 1A4); test: TP_TRANSPORTER: inhibition of Digoxin uptake (Digoxin: 0.05 uM, Glibenclamide: 1000 uM) in Oatp2-expressing LLC-PK1 cells; type: functional, cell-based; set-up: scale not given: the % may be the effect or the level left; conditions: pig, probe Digoxin, read-out: Activity
[15] = biological target: T2, Oatp1 (Solute carrier organic anion transporter family member 1A1); test: TP_TRANSPORTER: inhibition of E217betaG uptake (E217betaG: 0.1 uM, Glibenclamide: 1000 uM) in Oatp1-expressing LLC-PK1 cells; type: functional, cell-based; set-up: scale not given: the % may be the effect or the level left; conditions: pig, probe E217betaG, read-out: Activity
[16] = biological target: T1, Oatp2 (Solute carrier organic anion transporter family member 1A4); test: TP_TRANSPORTER: inhibition of Digoxin uptake (Digoxin: 0.05 uM, Tolbutamide: 1000 uM) in Oatp2-expressing LLC-PK1 cells; type: functional, cell-based; set-up: scale not given: the % may be the effect or the level left; conditions: pig, probe Digoxin, read-out: Activity
[17] = biological target: T2, Oatp1 (Solute carrier organic anion transporter family member 1A1); test: TP_TRANSPORTER: inhibition of E217betaG uptake (E217betaG: 0.1 uM, Tolbutamide: 1000 uM) in Oatp1-expressing LLC-PK1 cells; type: functional, cell-based; set-up: scale not given: the % may be the effect or the level left; conditions: pig, probe E217betaG, read-out: Activity
[18] = substrate: C[C@]12CC[C@@H]3c4ccc(O)cc4CC[C@H]3[C@@H]1CC[C@@H]2O[C@@H]1O[C@H](C(=O)O)[C@@H](O)[C@H](O)[C@H]1O; test: TP_TRANSPORTER: uptake in Oatp1-expressing LLC-PK1 cells; type: functional, cell-based
[19] = substrate: C[C@H]1O[C@@H](O[C@H]2[C@@H](O)C[C@H](O[C@H]3[C@@H](O)C[C@H](O[C@H]4CC[C@@]5(C)[C@H](CC[C@@H]6[C@@H]5C[C@@H](O)[C@]5(C)[C@@H](C7=CC(=O)OC7)CC[C@]65O)C4)O[C@@H]3C)O[C@@H]2C)C[C@H](O)[C@@H]1O; test: TP_TRANSPORTER: uptake in Oatp2-expressing LLC-PK1 cells; type: functional, cell-based

Molecule: C[C@]12CC[C@H]3[C@@H](CCC4=CC(=O)CC[C@@]43C)[C@@H]1CC[C@@H]2C(=O)CO [DESOXYCORTICOSTERONE]
- activity at 100 µM [1]: 13.6%
- activity at 100 µM [2]: 1.34%

Molecule: CC(C(=O)O)c1cccc(C(=O)c2ccccc2)c1 (stereo not drawn) [KETOPROFEN]
- activity at 1000 µM [3]: 30.2%
- activity at 1000 µM [4]: 6.89%

Molecule: CO[C@H]1/C=C/O[C@@]2(C)Oc3c(C)c(O)c4c(O)c(c(/C=N/N5CCN(C)CC5)c(O)c4c3C2=O)NC(=O)/C(C)=C\C=C\[C@H](C)[C@H](O)[C@@H](C)[C@@H](O)[C@@H](C)[C@H](OC(C)=O)[C@@H]1C [RIFAMPIN]
- Ki [5]: 18.2 µM
- Ki [6]: 1.46 µM

Molecule: COc1ccc2c(c1)c(CC(=O)O)c(C)n2C(=O)c1ccc(Cl)cc1 [INDOMETHACIN]
- activity at 1000 µM [7]: 1.16%
- activity at 1000 µM [8]: 14.3%

Molecule: C[C@]12C[C@H](O)[C@H]3[C@@H](CCC4=CC(=O)CC[C@@]43C)[C@@H]1CC[C@@H]2C(=O)CO [CORTICOSTERONE]
- activity at 100 µM [9]: 32.9%

Molecule: C=C[C@H]1C[N@@]2CC[C@H]1C[C@@H]2[C@@H](O)c1ccnc2ccc(OC)cc12 [QUINIDINE]
- Ki [6]: 120 µM

Molecule: COc1ccc2cc([C@H](C)C(=O)O)ccc2c1 [NAPROXEN]
- activity at 1000 µM [10]: 19.9%
- activity at 1000 µM [11]: 52.2%

Molecule: COc1ccc(CCN(C)CCCC(C#N)(c2ccc(OC)c(OC)c2)C(C)C)cc1OC (stereo not drawn)
- activity at 1000 µM [12]: 3.93%
- activity at 1000 µM [13]: 4.12%

Molecule: CC(C)Cc1ccc(C(C)C(=O)O)cc1 (stereo not drawn) [IBUPROFEN]
- Ki [5]: 126 µM
- Ki [6]: 2430 µM

Molecule: COc1ccc(Cl)cc1C(=O)NCCc1ccc(S(=O)(=O)NC(=O)NC2CCCCC2)cc1 [GLYBURIDE]
- activity at 1000 µM [14]: 1.61%
- activity at 1000 µM [15]: 2.33%

Molecule: CCCCNC(=O)NS(=O)(=O)c1ccc(C)cc1 [TOLBUTAMIDE]
- activity at 1000 µM [16]: 47.3%
- activity at 1000 µM [17]: 32.9%

Molecule: C=C[C@H]1C[N@@]2CC[C@H]1C[C@H]2[C@H](O)c1ccnc2ccc(OC)cc12 [QUININE]
- Ki [6]: 3.81 µM

B1: Solute carrier organic anion transporter family member 1A1 (Rattus norvegicus) (protein)
chain: T2 sequence (P46720 whole entry)
- Km [18]: 11.2 µM

B2: Solute carrier organic anion transporter family member 1A4 (Rattus norvegicus) (protein)
chain: T1 sequence (O35913 whole entry)
- Km [19]: 0.279 µM
